Columns and labels:
[1] = molecular target: T1, MGL (monoacyl glycerol lipase) enzyme (Mus musculus, UniProt O35678); experiment: radioenzymatic assay of [3H] 2-OG hydrolysis by MGL; type: biochemical; details: mouse brain homogenate; 20 min preincubation; 50 μM 2-OG; read-out: IC50 (concentration inhibiting 50% of the control enzyme activity of MGL)
T1 construct: the source of MGL enzyme is a mouse brain homogenate from which the cerebellum and the medulla oblongata have been removed; from tissue; host or cells: mouse brain homogenate (cerebellum and medulla oblongata removed)
T1 sequence (O35678 1-303): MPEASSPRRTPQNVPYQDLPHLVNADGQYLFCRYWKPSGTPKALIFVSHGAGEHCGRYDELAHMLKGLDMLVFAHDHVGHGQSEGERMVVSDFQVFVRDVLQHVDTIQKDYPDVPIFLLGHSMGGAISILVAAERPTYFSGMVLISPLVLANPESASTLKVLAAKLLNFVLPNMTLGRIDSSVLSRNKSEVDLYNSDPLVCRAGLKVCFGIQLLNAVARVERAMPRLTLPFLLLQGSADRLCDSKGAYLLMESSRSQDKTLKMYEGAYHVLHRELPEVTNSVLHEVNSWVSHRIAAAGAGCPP
Description: Tests comprised measuring the activity, in vitro, of the compounds of the invention on the MGL enzyme.
The inhibitory activity was measured in a radioenzymatic assay based on measuring the product of hydrolysis of 2-oleoyl glycerol ([^3H] 2-OG) by MGL. The products of hydrolysis of [^3H] 2-OG, labeled on the glycerol, are oleic acid and [^3H]glycerol, and the source of MGL enzyme is a mouse brain homogenate from which the cerebellum and the medulla oblongata have been removed. The mouse brains are removed, and stored at −80° C. until they are used or homogenized immediately for twice 5 seconds using a Precellys apparatus at 5000 rpm (Bertin) in a 10 mM Tris-HCl, 150 mM NaCl, 1 mM EDTA buffer (pH 8) at 4° C. The concentration of the homogenates is then adjusted to 7.5 μg/μl.
(§1) The dilution series of the compounds is prepared from stock solutions at 20 mM in 100% DMSO. […]
Assaying of the MGL activity is carried out in a 96-well microplate in a final reaction volume of 100 μl. […] After stirring for 10 minutes, the microplate is centrifuged for 15 minutes at 4000 g and a 30 μl aliquot of the aqueous phase containing the [^3H]glycerol produced is removed and then counted for 5 minutes by liquid scintillation (Wallac 1450 Microbeta). […]

[2] = molecular target: T2, FAAH (Fatty Acid Amide Hydrolase) enzyme (Mus musculus, UniProt O08914); experiment: radioenzymatic assay of [3H]anandamide hydrolysis by FAAH; type: biochemical; details: mouse brain homogenate; 20 min preincubation; 10 μM anandamide; read-out: IC50 (concentration which inhibits 50% of the control enzyme activity of FAAH)
T2 construct: the source of FAAH enzyme is a mouse brain homogenate from which the cerebellum and the medulla oblongata have been removed; from tissue; host or cells: mouse brain homogenate (cerebellum and medulla oblongata removed)
T2 sequence (O08914 1-579): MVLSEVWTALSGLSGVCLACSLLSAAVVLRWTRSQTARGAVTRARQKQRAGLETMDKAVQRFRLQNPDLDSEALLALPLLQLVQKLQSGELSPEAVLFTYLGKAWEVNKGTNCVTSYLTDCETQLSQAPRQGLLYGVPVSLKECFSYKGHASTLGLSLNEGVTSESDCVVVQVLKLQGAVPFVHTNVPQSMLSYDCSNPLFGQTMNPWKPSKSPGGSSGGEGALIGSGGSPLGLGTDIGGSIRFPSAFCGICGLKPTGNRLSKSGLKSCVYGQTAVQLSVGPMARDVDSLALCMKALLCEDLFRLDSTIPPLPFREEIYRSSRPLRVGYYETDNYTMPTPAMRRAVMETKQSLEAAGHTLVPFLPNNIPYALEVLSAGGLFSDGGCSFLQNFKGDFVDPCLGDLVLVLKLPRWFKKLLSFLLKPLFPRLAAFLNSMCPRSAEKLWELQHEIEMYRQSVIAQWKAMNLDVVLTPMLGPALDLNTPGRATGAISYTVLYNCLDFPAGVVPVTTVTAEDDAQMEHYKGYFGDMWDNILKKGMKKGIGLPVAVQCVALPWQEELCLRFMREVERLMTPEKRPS
Description: Tests comprised measuring the activity, in vitro, of the compounds of the invention on the FAAH enzyme.
The inhibitory activity was measured in a radioenzymatic assay based on measuring the product of hydrolysis (ethanolamine [1-3H]) of anandamide by FAAH (Life Science (1995), 56, 1999-2005 and Journal of Pharmacology and Experimented Therapeutics (1997), 283, 729-734). The products of hydrolysis of [^3H]anandamide, labeled on ethanolamine, are arachidonic acid and [^3H]ethanolamine and the source of FAAH enzyme is a mouse brain homogenate from which the cerebellum and the medulla oblongata have been removed. The mouse brains are removed, and stored at −80° C. until they are used or homogenized immediately for twice 5 seconds using a Precellys apparatus at 5000 rpm (Bertin) in a 10 mM Tris-HCl, 150 mM NaCl, 1 mM EDTA buffer (pH 8) at 4° C. The concentration of the homogenates is then adjusted to 20 μg/μl.
as §1
Assaying of the FAAH activity is carried out in a 96-well microplate in a final reaction volume of 70 μl. […] After stirring for 10 minutes, the microplate is centrifuged for 15 minutes at 4000 g and a 30 μl aliquot of the aqueous phase containing the [^3H]ethanolamine produced is removed and then counted for 5 minutes by liquid scintillation (Wallac 1450 Microbeta).

melting point [°C] | IC50 [1] [nM] | IC50 [2] [nM] | SMILES
138 to 140 | – | – | COc1ccc(N2CCN(C(=O)n3nnc4ccc(N5CCCC5)nc43)CC2)cc1 [Compound No. 2, [4-(4-Methoxyphenyl)piperazin-1-yl](5-pyrrolidin-1-yl[1,2,3]triazolo[4,5-b]-pyridin-3-yl)methanone]
172 to 174 | 4 | 10 | O=C(N1CCN(c2cccc(C(F)(F)F)c2)CC1)n1nnc2ccc(N3CCOCC3)nc21 [compound 1, (5-morpholin-4-yl[1,2,3]triazolo[4,5-b]pyridin-3-yl)[4-(3-trifluoromethylphenyl)piperazin-1-yl]methanone]
158 to 160 | – | – | O=C(N1CCN(c2cccc(C(F)(F)F)c2)CC1)n1nnc2ccc(N3CCCC3)nc21 [compound 3, (5-pyrrolidin-1-yl[1,2,3]triazolo[4,5-b]pyridin-3-yl)[4-(3-trifluoromethylphenyl)piperazin-1-yl]methanone]
141 to 143 | – | – | O=C(N1CCN(c2ccc(C(F)(F)F)cc2)CC1)n1nnc2ccc(N3CCC(F)(F)C3)nc21 [compound 4, [5-(3,3-difluoropyrrolidin-1-yl)[1,2,3]triazolo[4,5-b]pyridin-3-yl)[4-(4-trifluoromethylphenyl)piperazin-1-yl]methanone]
